{"source": "ChEMBL document CHEMBL3044761", "about": "“Lethal Activity of a Trehalase Inhibitor, Validoxylamine A, against Mamestra brassicae and Spodoptera litura” (J Pestic Sci, 1994)", "type_in_all_cases": "functional", "key": {"Mamestra brassicae [1]": {"system": "Mamestra brassicae", "test": "Insecticidal activity against last-instar Mamestra brassicae larvae assessed as partial pupation at 50 ug/larvae oral administration (reference value: 10%)"}, "Mamestra brassicae [2]": {"system": "Mamestra brassicae", "test": "Insecticidal activity against last-instar Mamestra brassicae larvae assessed as normal pupae injected at 5 ug/larvae (reference value: 90%)"}, "Mamestra brassicae [3]": {"system": "Mamestra brassicae", "test": "Insecticidal activity against last-instar Mamestra brassicae larvae assessed as partial pupation injected at 10 ug/larvae (reference value: 10%)"}, "Mamestra brassicae [4]": {"system": "Mamestra brassicae", "test": "Insecticidal activity against last-instar Mamestra brassicae larvae assessed as normal pupae injected at 50 ug/larvae (reference value: 90%)"}, "Mamestra brassicae [5]": {"system": "Mamestra brassicae", "test": "Insecticidal activity against last-instar Mamestra brassicae larvae assessed as wing pad separation injected at 10 ug/larvae (reference value: 0%)"}, "Spodoptera litura [6]": {"system": "Spodoptera litura", "test": "Insecticidal activity against last-instar Spodoptera litura larvae assessed as partial pupation injected at 0.4 ug/larvae (reference value: […])"}, "Spodoptera litura [7]": {"system": "Spodoptera litura", "test": "Insecticidal activity against last-instar Spodoptera litura larvae assessed as partial pupation injected at 2 ug/larvae (reference value: 100%)"}}, "data": [{"smiles": "OCC1=C[C@H](N[C@H]2C[C@H](CO)[C@@H](O)[C@H](O)[C@H]2O)[C@H](O)[C@@H](O)[C@@H]1O", "note": "[VALIDOXYLAMINE A]", "values": [{"measurement": "Activity", "setting": "Mamestra brassicae [1]", "result": 0, "unit": "%"}, {"measurement": "Activity", "setting": "Mamestra brassicae [2]", "result": 7, "unit": "%"}, {"measurement": "Activity", "setting": "Mamestra brassicae [3]", "result": 13, "unit": "%"}, {"measurement": "Activity", "setting": "Mamestra brassicae [4]", "result": 0, "unit": "%"}, {"measurement": "Activity", "setting": "Mamestra brassicae [5]", "result": 7, "unit": "%"}, {"measurement": "Activity", "setting": "Spodoptera litura [6]", "result": 10, "unit": "%"}, {"measurement": "Activity", "setting": "Spodoptera litura [7]", "result": 20, "unit": "%"}]}]}
